Key:
MPTP-treated mice [1] = assay: MPTP-induced loss of nigral TH-IR with CB1 agonist/antagonist and HM; format: in vivo; details: combined with HM 20 mg/kg i.p.
Description: CB1 agonist or antagonist was administered 45 min before every MPTP, while HM was injected 30 min before every MPTP (20 mg/kg, i.p./day×7). Compounds were administered for 7 days post-final MPTP.

MA-treated mice [2] = assay: MA-induced behavioural sensitization
Description: Morphinans (20 mg/kg, i.p.) were administered last 3 days of wash-out period.

LPS-treated mice [3] = assay: LPS-induced loss of nigral TH-IR with CB1 agonist/antagonist and HM; format: in vivo
Description: Mortality was observed by 2 weeks after bilateral LPS intrastriatal injection (one side: 2 μg×2).

cocaine-treated mice [4] = assay: Cocaine-induced behavioural sensitization with CB1 modulation
LPS-treated mice [5] = assay: LPS-induced mortality with CB1 agonist/antagonist and HM; format: in vivo
cocaine-treated mice [6] = assay: Cocaine-induced conditioned place preference with CB1 modulation
Description: (§1) The control mice received an i.p. injection of saline just before entering the white or black compartment. Cocaine or MA dissolved in saline was administered immediately before the mice were placed in the white compartment. To test the effect of cocaine alone or MA alone or in combination with exemplified morphinans (DM, HM, AM, CM or DF), each morphinan was administered 2 hr before cocaine or saline injection.
(§2) On day 1, the mice were pre-exposed to the test apparatus for 5 min. The guillotine doors were raised and the mice were allowed to move freely between the two compartments. On day 2, the time each mouse spent in each compartment was recorded for 15 min. On days 3, 5, 7, 9, 11, and 13, the mice were injected with cocaine before being confined to the white compartment, the non-preferred side, for 20 min. On days 4, 6, 8, 10, and 12, the mice were injected with saline before being confined to the black compartment, the preferred side, for 20 min. On day 14, the guillotine doors were raised. The mice were initially placed in the tunnel and the time spent by the mice in the two compartments was recorded for 15 min. The scores were calculated from the differences in the time spent in the white compartment in the testing and pre-testing phases.

MA-treated mice [7] = assay: MA-induced loss of nigral TH-IR with CB1 agonist/antagonist and HM
Description: Compounds were administered 3 days before and after MA injection.

MA-treated mice [8] = assay: MA-induced conditioned place preference with CB1 modulation
Description: as §1, §2

LPS-treated mice [9] = assay: LPS model, HM versus L-dopa/carbidopa: mortality; format: in vivo; details: intrastriatal LPS 2 μg x 4/head; 2 weeks
Description: Mortality was observed by 2 weeks after LPS injection. *P<0.01 vs. Saline+LPS (x^2-test).
The neuroprotective effect of HM was compared with L-dopa, carbidopa, or carbidopa plus L-dopa in response to dopaminergic damage induced by LPS. Intrastriatal injection of LPS (2 μg×4/head) produced high mortality (ten animals died out of twelve animals in the 2 weeks after LPS administration).

LPS-treated mice [10] = assay: LPS model, HM versus L-dopa/carbidopa: nigral TH-IR; details: mouse, in vivo
Source text: FIG. 27 show effects of carbidopa, L-dopa, carbidopa+L-dopa and HM on the nigral tyrosine hydroxylase-like immunoreactivity (TH-IR) of the mice treated with LPS.

MPTP-treated mice [11] = assay: MPTP model, HM versus L-dopa/carbidopa: locomotor activity; format: in vivo; details: HM 24 mg/kg i.p., L-dopa 200 mg/kg p.o., carbidopa 20 mg/kg p.o., 2 weeks before MPTP
Description: FIGS. 20A-20B show effects of carbidopa, L-dopa, carbidopa+L-dopa and HM on the changes in locomotor activity (A) and locomotor pattern (B) induced by MPTP in mice.
A prescription drug for treating Parkinsonian patients is L-dopa or carbidopa plus L-dopa. Thus, the neuroprotective effects of HM was compared with L-dopa, carbidopa, or carbidopa plus L-dopa. […] Locomotor activity was examined for 60 min after final treatment of MPTP. Mice were sacrificed at 24 h after final MPTP administration. HM (24 mg/kg, i.p.), L-dopa (200 mg/kg, p.o.) with or without carbidopa (20 mg/kg, p.o.) was administered for 2 weeks before first MPTP challenge.

LPS-treated mice [12] = assay: LPS model, HM versus L-dopa/carbidopa: microglia F4/80-like immunoreactivity; format: in vivo; details: substantia nigra
MA-treated mice [13] = assay: MA model, HM versus L-dopa/carbidopa: locomotor activity; format: in vivo; details: 3 days after MA
MA-treated mice [14] = assay: MA model, HM versus L-dopa/carbidopa: hyperthermia; format: in vivo; details: MA 7.5 mg/kg i.p. x 4
Description: FIGS. 31A-31B show effect of drugs on the MA-induced hyperthermia. Mice received MA injections as 2 hrs' time interval under the ambient temperature of 22.0±0.5° C.
Experimental paradigm for MA with or without compounds is in FIG. 30. Treatment with MA (7.5 mg/kg, i.p.×four times as two hour time interval) produces hyperthermia (P<0.01).

LPS-treated mice [15] = assay: LPS model, HM versus L-dopa/carbidopa: locomotor activity; format: in vivo; details: 3 weeks after LPS
Description: Locomotor activity was examined for 60 min at 3 weeks after LPS treatment. LPS-induced significant reduction (P<0.01 vs. saline treatment) in locomotor activity was attenuated by L-dopa (P<0.05), carbidopa+L-dopa (P<0.05) or HM (P<0.01) (FIGS. 24 and 25).

CCCCC/C=C\C/C=C\C/C=C\C/C=C\CCCC(=O)NCCCl [ACEA, arachidonyl-2-chloroethylamide]
effect on MPTP-induced loss in TH-IR when combined with HM / on HM's action (MPTP-treated mice [1]): counteracted HM's neuroprotective action | behavioural effects of the compound itself (MA-treated mice [2]; AM 251 0.3, ACEA 2, HM 20 mg/kg, no MA (Ex. 3.14)): Neither saline-, AM 251 (0.3 mg/kg)-, ACEA (2 mg/kg)-treated nor HM (20 mg/kg)-treated animals showed any behavioural effects | effect on MA-induced behavioural sensitization (CB1 modulation study) (MA-treated mice [2]; MA 1 mg/kg i.p./day x 7, challenge one week later (Ex. 3.14)): Neither ACEA nor AM 251 influenced behavioural sensitization by cocaine | effect on HM's effect on MA-induced sensitization (MA-treated mice [2]; combined with HM): significantly reversed HM's effect | effect on LPS-induced loss in TH-IR when combined with HM / on HM's effect (LPS-treated mice [3]; combined with HM): counteracted HM's protective effect | effect on LPS-induced reduction in nigral TH-IR (LPS-treated mice [3]; given alone): did not alter LPS-induced reduction in TH-IR | behavioural effects of the compound itself (cocaine-treated mice [4]; AM 251 0.3, ACEA 2, HM 20 mg/kg, no cocaine): Neither saline-, AM 251 (0.3 mg/kg)-, ACEA (2 mg/kg)-treated nor HM (20 mg/kg)-treated animals showed any specific behavioural effects | effect on cocaine-induced behavioural sensitization (cocaine-treated mice [4]; cocaine 10 mg/kg/day i.p. x 7, challenge one month later): Neither ACEA nor AM 251 alter behavioural sensitization by cocaine | effect on HM's effect in response to cocaine-induced sensitization (cocaine-treated mice [4]; combined with HM): Neither ACEA nor AM 251 significantly alter HM's effect | effect on HM-induced protective (anti-mortal) effect (LPS-treated mice [5]; combined with HM 20 mg/kg): reversed HM-induced protective (anti-mortal) effect | effect on LPS-induced mortality (LPS-treated mice [5]; given alone: HM 20, ACEA 2, AM-251 0.3 mg/kg, 2 weeks after bilateral intrastriatal LPS): Neither AM-251 nor ACEA significantly changed LPS-induced mortality | CPP response of the compound itself (cocaine-treated mice [6]; AM 251 0.3, HM 20, ACEA 2 mg/kg, no cocaine): showed CPP effects | effect on cocaine-induced CPP (cocaine-treated mice [6]; cocaine 10 mg/kg): did not alter CPP effects by cocaine | effect on HM's effect in response to cocaine-induced CPP (cocaine-treated mice [6]; combined with HM 20 mg/kg): appears to counteract the cocaine-induced CPP | effect on MA-induced reduction in TH-IR when combined with HM / on HM's effect (MA-treated mice [7]; combined with HM 20 mg/kg): reversed HM's protective effect | effect on MA-induced reduction in nigral TH-IR (MA-treated mice [7]; given alone): did not alter MA-induced reduction in TH-IR | CPP response of the compound itself (MA-treated mice [8]; AM 251 0.3, HM 20, ACEA 2 mg/kg i.p., no MA): showed CPP effects | effect on HM's effect in response to MA-induced CPP (MA-treated mice [8]; combined with HM): significantly counteracted | effect on MA-induced CPP (MA-treated mice [8]; mouse, in vivo): did not alter CPP effects by MA

N[C@@H](Cc1ccc(O)c(O)c1)C(=O)O [L-dopa]
effect on mortality induced by LPS (LPS-treated mice [9]): appears to attenuate mortality induced by LPS | effect on LPS-induced loss in nigral TH-IR (LPS-treated mice [10]): significantly attenuated | effect on MPTP-induced decrease in locomotor activity (MPTP-treated mice [11]): appeared to increase | effect on LPS-induced increase in F4/80-like immunoreactivity (microglia) (LPS-treated mice [12]): significantly attenuated | effect on MA-induced reduction in locomotor activity (MA-treated mice [13]): significantly enhanced | effect on MA-induced hyperthermia (MA-treated mice [14]): significantly attenenuated | effect on LPS-induced reduction in locomotor activity (LPS-treated mice [15]): attenuated

— patent US7691874B2, “Neuroprotective properties of dextrorotatory morphinans” (priority 2004, dated 2010)
